Measurements as given in patent US20130116241A1, “NOVEL INHIBITOR COMPOUNDS OF PHOSPHODIESTERASE TYPE 10A” (AbbVie Inc., priority 2011, published 2013).
pIC50: −log10 of the molar value. Structures can show the parent of a compound that is named as a salt.

target: human PDE10A (UniProt Q9Y233); assay: Measurement of PDE activity (recombinant enzyme, HTRF cAMP kit); format: biochemical; settings: Table 1, substrate 20 nM for PDE10, 60 minutes at 29 C, read-out: IC50
Description: The recombinant PDE proteins are used in in vitro enzymatic reaction for measurement of PDE activity. These recombinant proteins, including PDE10A (human, rat and mouse PDE10) and isoforms of PDEs 1, 3, 4, and 5, were purchased from commercial vendor BPS Bioscience. The enzymatic activity of PDEs was determined by cAMP measurement kit from CisBio (IBA) using HTRF technology.
The PDE enzymatic reaction was carried out in assay buffer (20 mM Tris-HCl pH7.5, 10 mM MgCl2, 0.1% bovine serum albumin) containing enzyme and substrate. The PDE enzymes concentration ranged from 10 pM-250 pM, depending on each enzyme's specific activity. The substrate cyclic nucleotide (cAMP or cGMP) concentration used in the assay was 20 nM for PDE10, and 100 nM for other PDEs. The inhibitory effect of compound was determined by incubating various concentration of inhibitor in the enzymatic assay. Typically, compound was serial diluted in DMSO then further diluted in assay buffer. Next, the compound at varying concentration was mixed with PDE enzyme. The reaction was initiated by addition of cyclic nucleotide substrate, and incubated for 60 minutes at 29 C. The reaction was stopped by addition of lysis buffer from assay kit. The cAMP-d2 and anti-cAMP cryptate in the lysis buffer detected the level of cAMP left from the PDE hydrolysis reaction. The PDE activity is reversely correlated with the amount of cAMP left in the reaction and can be converted to the percent activity of an uninhibited control (100%). Thus, IC50 value of inhibitor can be obtained by plotting inhibitor concentration against PDE activity at that concentration.

Chain of human PDE10A (Q9Y233 290-1055 limits assumed): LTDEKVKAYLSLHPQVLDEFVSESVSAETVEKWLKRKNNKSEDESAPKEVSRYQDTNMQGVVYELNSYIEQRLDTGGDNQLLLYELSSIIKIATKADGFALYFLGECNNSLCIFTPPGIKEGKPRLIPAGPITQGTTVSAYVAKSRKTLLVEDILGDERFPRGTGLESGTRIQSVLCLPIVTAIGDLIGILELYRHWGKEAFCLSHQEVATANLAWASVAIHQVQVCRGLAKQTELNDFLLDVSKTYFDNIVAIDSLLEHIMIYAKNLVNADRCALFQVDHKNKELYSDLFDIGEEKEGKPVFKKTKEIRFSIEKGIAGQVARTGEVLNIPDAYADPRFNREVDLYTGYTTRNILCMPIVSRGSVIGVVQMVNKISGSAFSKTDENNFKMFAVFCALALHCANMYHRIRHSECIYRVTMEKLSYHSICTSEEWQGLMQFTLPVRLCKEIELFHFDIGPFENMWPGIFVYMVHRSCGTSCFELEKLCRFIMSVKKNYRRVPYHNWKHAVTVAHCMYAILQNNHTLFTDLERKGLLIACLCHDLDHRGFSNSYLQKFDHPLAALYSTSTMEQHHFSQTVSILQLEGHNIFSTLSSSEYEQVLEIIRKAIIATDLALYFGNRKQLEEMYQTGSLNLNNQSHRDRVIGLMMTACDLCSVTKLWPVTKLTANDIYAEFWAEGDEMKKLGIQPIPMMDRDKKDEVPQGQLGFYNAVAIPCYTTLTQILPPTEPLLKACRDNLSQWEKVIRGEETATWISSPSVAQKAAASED

**Q.** Cc1noc(C)c1-c1csc2cnn(CCc3ccc4ccccc4n3)c(=O)c12 [Example 48, 3-(3,5-dimethyl-1,2-oxazol-4-yl)-5-[2-(quinolin-2-yl)ethyl]thieno[2,3-d]pyridazin-4(5H)-one] was tested. Which pIC50 did it give?
**A.** > 7.00

**Q.** With O=c1c2c(-c3cccc4cnccc34)csc2cnn1CCc1ccc2ccccc2n1 [Example 44, 3-(isoquinolin-5-yl)-5-[2-(quinolin-2-yl)ethyl]thieno[2,3-d]pyridazin-4(5H)-one] as the compound, how does the pIC50 read?
**A.** 6.30 to 6.70

**Q.** C=C(Cn1ncc2nccc(-c3ccncc3)c2c1=O)c1ccc2ccccc2n1 [Example 234, 4-(Pyridin-4-yl)-6-(2-(quinolin-2-yl)allyl)pyrido[2,3-d]pyridazin-5(6H)-one] was tested. Which pIC50 did it give?
**A.** > 7.00

**Q.** How did the pIC50 turn out when Cn1nccc1-c1csc2ccn(CCc3ccc4ccccc4n3)c(=O)c12 [Example 204, 3-(1-Methyl-1H-pyrazol-5-yl)-5-[2-(quinolin-2-yl)ethyl]thieno[3,2-c]pyridin-4(5)H-one hydrochloride] was run?
**A.** > 7.00

**Q.** With Cc1ccccc1-c1csc2cnn(CCc3ccc4ccccc4n3)c(=O)c12 [Example 18, 3-(2-methylphenyl)-5-[2-(quinolin-2-yl)ethyl]thieno[2,3-d]pyridazin-4(5H)-one] as the compound, how does the pIC50 read?
**A.** 6.30 to 6.70

**Q.** How did the pIC50 turn out when O=c1c2c(-c3cccnc3)cccc2ccn1C1CC1c1ccc2cc(F)ccc2n1 (stereo not drawn) [Example 272] was run?
**A.** > 7.00

**Q.** How did the pIC50 turn out when CC(C)Cn1cc(-c2cccc3cnn(CCc4ccc5ccccc5n4)c(=O)c23)cn1 [Example 140, 8-[1-(2-Methylpropyl)-1H-pyrazol-4-yl]-2-[2-(quinolin-2-yl)ethyl]phthalazin-1(2H)-one] was run?
**A.** 6.30 to 6.70

**Q.** O=c1c2c(-c3cccc4ncccc34)csc2cnn1CCc1ccc2ccccc2n1 [Example 47, 3-(quinolin-5-yl)-5-[2-(quinolin-2-yl)ethyl]thieno[2,3-d]pyridazin-4(5H)-one] was tested. Which pIC50 did it give?
**A.** 6.70 to 7.00

**Q.** With O=c1c2c(-c3ccncc3)cccc2cnn1CCc1cn2ccccc2n1 [Example 166, 2-[2-(Imidazo[1,2-a]pyridin-2-yl)ethyl]-8-(pyridin-4-yl)phthalazin-1(2H)-one] as the compound, how does the pIC50 read?
**A.** > 7.00

**Q.** With O=c1c2c(-c3ccc(F)cc3Cl)csc2cnn1CCc1ccc2ccccc2n1 [Example 64, 3-(2-chloro-4-fluorophenyl)-5-[2-(quinolin-2-yl)ethyl]thieno[2,3-d]pyridazin-4(5H)-one] as the compound, how does the pIC50 read?
**A.** 6.30 to 6.70

**Q.** With O=c1c2c(-c3ccc(F)nc3)cccc2ccn1C1CC1c1ccc2ccccc2n1 (single isomer, unassigned) [Example 237, anti (−) 8-(6-fluoropyridin-3-yl)-2-(2-(quinolin-2-yl)cyclopropyl)isoquinolin-1(2H)-one] as the compound, how does the pIC50 read?
**A.** > 7.00

**Q.** With O=c1c2c(-c3ccncc3)ccnc2cnn1[C@@H]1C[C@H]1c1ccc2ccccc2n1 (relative stereo) [Example 277, anti 4-(pyridin-4-yl)-6-(2-(quinolin-2-yl)cyclopropyl)pyrido[2,3-d]pyridazin-5(6H)-one] as the compound, how does the pIC50 read?
**A.** > 7.00

**Q.** How did the pIC50 turn out when O=c1c2c(C3CCOC3)cccc2cnn1CCc1cn2ccccc2n1 (stereo not drawn) [compound 337, 2-[2-(imidazo[1,2-a]pyridin-2-yl)ethyl]-8-(tetrahydrofuran-3-yl)phthalazin-1(2H)-one] was run?
**A.** > 7.00

**Q.** O=c1c2c(N3CCC(F)(F)CC3)cccc2cnn1CCc1cn2ccccc2n1 [Example 179, 8-(4,4-Difluoropiperidin-1-yl)-2-[2-(imidazo[1,2-a]pyridin-2-yl)ethyl]phthalazin-1(2H)-one] was tested. Which pIC50 did it give?
**A.** 6.70 to 7.00

**Q.** O=c1c2c(-c3cccnc3)cccc2ccn1C1CC1c1ccc2ccccc2n1 (single isomer, unassigned; (-)) [Example 239b, (−) anti 8-(pyridin-3-yl)-2-(2-(quinolin-2-yl)cyclopropyl)isoquinolin-1(2H)-one] was tested. Which pIC50 did it give?
**A.** > 7.00

**Q.** O=c1c2c(-c3ccncc3O)csc2ccn1CCc1ccc2ccccc2n1 [Example 203, 3-(3-Hydroxypyridin-4-yl)-5-[2-(quinolin-2-yl)ethyl]thieno[3,2-c]pyridin-4(5H)-one hydrochloride] was tested. Which pIC50 did it give?
**A.** 6.30 to 6.70

**Q.** With CC(C)c1ccc(-c2csc3cnn(CCc4ccc5ccccc5n4)c(=O)c23)cc1 [Example 8, 3-[4-(propan-2-yl)phenyl]-5-[2-(quinolin-2-yl)ethyl]thieno[2,3-d]pyridazin-4(5H)-one] as the compound, how does the pIC50 read?
**A.** > 7.00

**Q.** O=c1c2c(-c3ccc4[nH]ncc4c3)csc2cnn1CCc1ccc2ccccc2n1 [Example 87, 3-(1H-indazol-5-yl)-5-[2-(quinolin-2-yl)ethyl]thieno[2,3-d]pyridazin-4(5H)-one] was tested. Which pIC50 did it give?
**A.** > 7.00

**Q.** How did the pIC50 turn out when O=C1Cc2ccc(-c3cccc4cnn(CCc5cn6ccccc6n5)c(=O)c34)cc2N1 [Example 171, 2-[2-(Imidazo[1,2-a]pyridin-2-yl)ethyl]-8-(2-oxo-2,3-dihydro-1H-indol-6-yl)phthalazin-1(2H)-one] was run?
**A.** > 7.00

**Q.** How did the pIC50 turn out when O=c1c2c(-c3cccc(O)c3)csc2ccn1CCc1ccc2ccccc2n1 [Example 208, 3-(3-Hydroxyphenyl)-5-[2-(quinolin-2-yl)ethyl]thieno[3,2-c]pyridin-4(5H)-one hydrochloride] was run?
**A.** > 7.00

**Q.** With O=c1c2c(-c3cccnc3)csc2cnn1CCc1ccc2ccccc2n1 [Example 39, 3-(pyridin-3-yl)-5-[2-(quinolin-2-yl)ethyl]thieno[2,3-d]pyridazin-4(5H)-one] as the compound, how does the pIC50 read?
**A.** > 7.00

**Q.** With O=c1c2ccccc2c(-c2cccnc2)nn1CCc1ccc2ccccc2n1 [compound 399, 4-(pyridin-3-yl)-2-[2-(quinolin-2-yl)ethyl]phthalazin-1(2H)-one] as the compound, how does the pIC50 read?
**A.** > 7.00

**Q.** How did the pIC50 turn out when O=c1c2c(N3CCC(O)CC3)cccc2ccn1[C@@H]1C[C@H]1c1ccc2ccccc2n1 (relative stereo) [Example 253, anti 8-(4-hydroxypiperidin-1-yl)-2-(2-(quinolin-2-yl)cyclopropyl)isoquinolin-1(2H)-one (2E)-but-2-enedioate] was run?
**A.** > 7.00

**Q.** O=c1c2c(C3CCOCC3)cccc2ccn1C1CC1c1ccc2ccccc2n1 (stereo not drawn) [Example 257, anti 2-(2-(quinolin-2-yl)cyclopropyl)-8-(tetrahydro-2H-pyran-4-yl)isoquinolin-1(2H)-one] was tested. Which pIC50 did it give?
**A.** > 7.00

**Q.** With Cc1cnc(CCn2ncc3scc(-c4ccncc4)c3c2=O)c(C)c1 [compound 321, 5-[2-(3,5-dimethylpyridin-2-yl)ethyl]-3-(pyridin-4-yl)thieno[2,3-d]pyridazin-4(5H)-one] as the compound, how does the pIC50 read?
**A.** 6.70 to 7.00

**Q.** O=c1c2c(-c3ccc(F)cc3)cccc2cnn1CCc1ccc2ccccc2n1 [Example 105, 8-(4-Fluorophenyl)-2-[2-(quinolin-2-yl)ethyl]phthalazin-1(2H)-one] was tested. Which pIC50 did it give?
**A.** 6.70 to 7.00

**Q.** How did the pIC50 turn out when COc1cc(OC)cc(-c2cccc3cnn(CCc4ccc5ccccc5n4)c(=O)c23)c1 [Example 152, 8-(3,5-Fimethoxyphenyl)-2-[2-(quinolin-2-yl)ethyl]phthalazin-1(2H)-one] was run?
**A.** 6.30 to 6.70

**Q.** How did the pIC50 turn out when O=c1c2c(-c3ccncc3)csc2ccn1C1CC1c1ccc2sccc2n1 (stereo not drawn) [compound 292] was run?
**A.** > 7.00

**Q.** O=c1c2c(-c3ccncc3)cccc2ccn1C1CC1c1ccc2ccccc2n1 (stereo not drawn) [Example 256, syn 8-(pyridin-4-yl)-2-(2-(quinolin-2-yl)cyclopropyl)isoquinolin-1(2H)-one hydrochloride] was tested. Which pIC50 did it give?
**A.** > 7.00

**Q.** O=c1c2c(-c3ccncc3)csc2c(-c2cccnc2)nn1CCc1cn2ccccc2n1 [compound 304, 5-[2-(imidazo[1,2-a]pyridin-2-yl)ethyl]-7-(pyridin-3-yl)-3-(pyridin-4-yl)thieno[2,3-d]pyridazin-4(5H)-one] was tested. Which pIC50 did it give?
**A.** > 7.00
